Assay results from ChEMBL document CHEMBL5104089, “An update into the medicinal chemistry of translocator protein (TSPO) ligands” (Eur J Med Chem, 2021).

Columns and labels:
[1] = Lipophilicity, logD of the compound in 1-octanol and phosphate buffer in pH 7.4 incubated for 3 mins by shake flask method; assay type: physicochemical; conditions: 1-octanol/phosphate buffer
Translocator protein [2] = target: T1, Translocator protein (Rattus norvegicus, UniProt P16257); assay: Displacement of [3H]-PK11195 from TSPO receptor in Sprague-Dawley rat brain incubated for 30 mins by […] analysis; assay type: tissue-based
Translocator protein [3] = target: T1, Translocator protein; assay: Displacement of [3H]-PK11195 from TSPO receptor in rat heart microsomes incubated for 15 mins by scintillation method; set-up: species or system Microsome
[4] = Binding affinity to CBR (unknown origin); set-up: species or system Homo sapiens
Translocator protein [5] = target: T1, Translocator protein; assay: Displacement of [3H]-Ro54864 from TSPO receptor in rat heart microsomes incubated for 45 mins by scintillation method; set-up: species or system Microsome
[6] = Displacement of [3H]-Ro51788 from CBR receptor in rat brain microsomes incubated for 60 mins by scintillation method; set-up: species or system Microsome
Translocator protein [7] = target: T2, Translocator protein (Homo sapiens, UniProt P30536); assay: Inhibition of TSPO (unknown origin) in mouse MA-10 cells assessed as increase in steroid steroidogenesis
[8] = Displacement of [3H]flunitrazepam from CBR receptor in rat brain cerebral cortex by liquid scintillation spectrometer method; assay type: tissue-based
Translocator protein [9] = target: T2, Translocator protein; assay: Inhibition of TSPO receptor (unknown origin)
Translocator protein [10] = target: T2, Translocator protein; assay: Binding affinity to TSPO (unknown origin) relative to control; conditions: tested as the 11C-labelled form
Translocator protein [11] = target: T1, Translocator protein; assay: Displacement of [3H]-flunitrazepam from TSPO receptor in Wistar rat brain without cerebellum incubated for 90 mins by liquid scintillation counter analysis; assay type: tissue-based
[12] = Selectivity ratio of Ki for CBR (unknown origin) to Ki for TSPO receptor in Wistar rat brain
[13] = Lipophilicity, logD of the compound in 1-octanol and phosphate buffer in pH 7.4 incubated for 3 mins; assay type: physicochemical; conditions: 1-octanol/phosphate buffer
Translocator protein [14] = target: T1, Translocator protein; assay: Binding affinity to TSPO in Sprague-Dawley rat brain; assay type: tissue-based
[15] = Lipophilicity, logD of the compound; assay type: physicochemical; conditions: octanol/water
Translocator protein [16] = target: T2, Translocator protein; assay: Displacement of [3H]-PK11195 from TSPO receptor in human Leucocyte incubated for 30 mins by beta-counter analysis; assay type: cell-based
[17] = Stability of the compound assessed as intact compound level measured after 24 hrs by iTLC-SG analysis; assay type: physicochemical; conditions: read-out: Stability
[18] = Stability of the compound in human serum assessed as intact compound level measured after 24 hrs by iTLC-SG analysis; assay type: ADME, cell-free; conditions: read-out: Stability

T2 sequence (P30536 whole entry): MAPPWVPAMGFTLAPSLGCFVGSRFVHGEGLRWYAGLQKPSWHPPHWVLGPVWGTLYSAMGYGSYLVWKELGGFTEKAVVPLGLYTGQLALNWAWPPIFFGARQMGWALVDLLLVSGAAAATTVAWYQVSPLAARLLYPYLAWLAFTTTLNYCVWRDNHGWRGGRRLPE
T1 sequence (P16257 whole entry, looked up): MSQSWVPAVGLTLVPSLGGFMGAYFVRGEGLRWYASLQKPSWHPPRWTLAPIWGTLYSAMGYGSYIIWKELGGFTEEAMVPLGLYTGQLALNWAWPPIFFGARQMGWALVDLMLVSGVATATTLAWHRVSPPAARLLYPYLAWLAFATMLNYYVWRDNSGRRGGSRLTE

SMILES: CN(C(=O)Cn1c(=O)oc2ccc(-c3ccc(OCC[18F])cc3)cc21)c1ccccc1
- logD at 0.05 h [1]: 3.43
- Ki (Translocator protein [2]): 6.6 nM

SMILES: CCN(CC)C(=O)Cn1c(=O)n2nc(-c3ccccc3)nc2c2ccccc21
- IC50 (Translocator protein [3]): 1700 nM

SMILES: CN1C(=O)CN=C(c2ccccc2F)c2cc([N+](=O)[O-])ccc21 [FLUNITRAZEPAM]
- Ki [4]: 5.11 nM

SMILES: CCN(CC)C(=O)Cn1c(=O)n2cc(-c3ccccc3)nc2c2ccccc21
- IC50 (Translocator protein [5]): 80 nM
- IC50 [6]: > 10000 nM
- IC50 (Translocator protein [3]): 400 nM

SMILES: CCCN(CCC)C(=O)Cc1c(-c2ccc(OCC(=O)O)cc2)nc2c(Cl)cc(Cl)cn12
- EC50 (Translocator protein [7]): 39000 nM

SMILES: CC(=O)N(Cc1ccccc1OC(C)C)c1ccc(Cl)cc1Oc1ccccc1
- IC50 [8]: > 1000 nM

SMILES: CCN(CC)C(=O)Cn1c(=O)n2cc(-c3ccc(OC)c(OC)c3)nc2c2ccccc21
- IC50 (Translocator protein [5]): 500 nM
- IC50 [6]: > 10000 nM
- IC50 (Translocator protein [3]): 150 nM

SMILES: COc1ccc(OC)c(CN(C(C)=O)c2cc(F)ccc2Oc2ccccc2)c1
- IC50 (Translocator protein [9]): 0.28 nM
- Activity (Translocator protein [10]): 80%
- IC50 [8]: > 1000 nM

SMILES: CCCN(CCC)C(=O)Cc1c(-c2ccc(Cl)cc2)nc2ccc(Cl)cn12 [ALPIDEM]
- Ki [4]: 1 nM
- Ki (Translocator protein [11]): 7.9 nM
- Ratio Ki [12]: 3.29

SMILES: CCCN(CCC)C(=O)Cc1c(-c2ccc(Cl)cc2)nc2c(Cl)cc(Cl)cn12 [ALPDEM]
- EC50 (Translocator protein [7]): 337 nM

SMILES: CC(=O)N(C)c1ccccc1Oc1ccccc1
- IC50 (Translocator protein [9]): 6.7 nM

SMILES: CC(=O)N(Cc1ccccc1OC[18F])c1cnccc1Oc1ccccc1
- logD at 0.05 h [13]: 2.85

SMILES: Oc1nc2ccccc2c2nc(-c3ccccc3)nn12
- IC50 (Translocator protein [5]): 15 nM
- IC50 (Translocator protein [3]): 9800 nM

SMILES: CN(C(=O)Cn1c(=O)oc2ccc(-c3cccc([N+](=O)[O-])c3)cc21)c1ccccc1O[11CH3]
- Ki (Translocator protein [14]): 4.9 nM
- logD [15]: 2.08

SMILES: CCCN(CCC)C(=O)Cc1c(-c2ccc(OC)cc2)nc2c(Cl)cc(Cl)cn12
- EC50 (Translocator protein [7]): 571 nM

SMILES: CCC(C)N(C)C(=O)c1cc2ccccc2c(-c2ccccc2Cl)n1 (configuration not stated) [PK-11195]
- Ki [4]: > 100000 nM

SMILES: CC(=O)N(Cc1ccccc1O[11CH3])c1cnccc1Oc1ccccc1
- logD at 0.05 h [13]: 2.82
- IC50 (Translocator protein [16]): 8.07 nM

SMILES: CCCN(CCC)C(=O)Cc1c(-c2ccc(O)cc2)nc2ccc(Cl)cn12
- EC50 (Translocator protein [7]): 6990 nM
- Ki [4]: 1.05 nM
- Ki (Translocator protein [11]): 22.2 nM
- Ratio Ki [12]: 21.1

SMILES: CCN(CC)C(=O)Cn1c(=O)n2c(C)c(-c3ccccc3)nc2c2ccccc21
- IC50 (Translocator protein [5]): 9 nM
- IC50 [6]: > 10000 nM
- IC50 (Translocator protein [3]): 29 nM

SMILES: CCCN(CCC)C(=O)Cn1c(=O)n2cc(-c3ccccc3)nc2c2ccccc21
- IC50 (Translocator protein [5]): 12 nM
- IC50 [6]: > 10000 nM
- IC50 (Translocator protein [3]): 11 nM

SMILES: COc1ccc(-c2ccc3oc(=O)n(CC(=O)N(C)c4ccccc4)c3c2)cc1
- logD [15]: 3.5

SMILES: CCCN(CCC)C(=O)Cc1c(-c2ccc(Cl)cc2)nc2c(NCC(=O)O)cccn12
- EC50 (Translocator protein [7]): 21200 nM

SMILES: COC(=O)C(Cc1c[nH]c2ccccc12)NC(=O)Cn1c(=O)oc2ccc(Br)cc21 (configuration not stated)
- remaining at 24 h [17]: > 94%
- remaining at 24 h [18]: > 91%

SMILES: CCCN(CCC)C(=O)Cc1c(-c2ccc(OC)cc2)nc2ccc(Cl)cn12
- EC50 (Translocator protein [7]): 15900 nM
- Ki [4]: 105 nM
- Ki (Translocator protein [11]): 0.5 nM
- Ratio Ki [12]: 210
